Experimental data reported in patent publication US4223039A, “Therapeutically useful N-phenylaniline derivatives” (priority 1978, dated 1980).
Where a name gives a salt, the structure may show the parent alone.

How the values were obtained:
[1] = Acute toxicity in mice after oral administration; conditions: mouse, in vivo, suspended in 10% gum arabic, survivors checked at 15 days
Description: The compounds have been administered at increasing doses (in geometric progression) to groups of five .female. SWISS, EOPS, NMRI/Han mice originating from the breeding of EVIC CEBA and of mean weight 25 g.
For oral administration, they are suspended in a 10% gum arabic solution.
The LD 50s are calculated by the method of Behrens (B) and Karber (C), (Arch. Exp. Path. Pharmakol. 1935, 177, 379-388).
The number of animals surviving in the different groups is finally checked 15 days after administration of the compounds.

[2] = system: painful syndrome provoked in mice by phenylbenzoquinone; assay: animal or person; format: in vivo; conditions: for Therapeutic Index LD 50/ED 50 / therapeutic index (in words): mice; for Therapeutic Index LD 50/ED 50: LD 50 (oral)/ED 50 (phenylbenzoquinone test); for therapeutic index (in words): LD 50/ED 50
Description: There is used the phenylbenzoquinone test according to a technique adapted from that of Siegmund (E), Proc. Soc. Exp. Biol. Med. 1957, 95, No. 4, 729-731.
It is attempted to antagonise, by previous administration (30 minutes before) of the test compounds, the painful syndrome provoked in mice (groups of 10 animals) by interperitoneal injection of phenylbenzoquinone and characterised by intermittent contractions of the abdomen, periodic torsions of the trunk and extension of the rear paws. The number of symtoms is counted for 20 minutes after administration of the phenylbenzoquinone to the control and treated groups and the percentage protection relative to the control group calculated.
For the most interesting compounds, studied at several doses chosen in geometric progression of ratio 2, the effective doses 50% (ED 50) which reduce by 50% the effects provoked by phenylbenzoquinone are determined. These ED 50s are sorted according to their limits of confidence calculated for a probability p=0.05 according to the method of Litchfield (J. T.) and Wilcoxon (F. A.), J. Pharmacol. Exp. Ther. 1949, 96, 99-113.
Calculation of the therapeutic index (LD 50/ED 50) enables appreciation of the interest of the compounds.

[3] = Solubility in distilled water; format: physicochemical
[4] = Mus musculus, read-out: Percentage Protection

## CC(=O)Oc1ccccc1C(=O)O [Aspirin, reference compound]
[1]
  LD50 at 360 h: 1500 mg/kg
[2]; Mus musculus
  ED50: 60 mg/kg
[2]; [4]
  inhibition in vivo at 9.4 mg/kg: 4%
  inhibition in vivo at 18.75 mg/kg: 20%
  inhibition in vivo at 37.5 mg/kg: 31%
  inhibition in vivo at 75 mg/kg: 56%
  inhibition in vivo at 150 mg/kg: 82%
  inhibition in vivo at 300 mg/kg: 95%
[2]
  Therapeutic Index LD 50/ED 50: 25

## CC(Nc1cccc(C(=O)c2ccccc2)c1)C(=O)O (centres unmarked) [LJ 843, The lysine salt of N-(3-benzoylphenyl)alanine monohydrate]
[1]
  LD50 at 360 h: 3750 mg/kg
[2]; Mus musculus
  ED50: 25 mg/kg
[2]; [4]
  inhibition in vivo at 11.75 mg/kg: 30%
  inhibition in vivo at 23.5 mg/kg: 38%
  inhibition in vivo at 47 mg/kg: 66%
  inhibition in vivo at 93.75 mg/kg: 84%
  inhibition in vivo at 187.5 mg/kg: 91%
[2]
  Therapeutic Index LD 50/ED 50: 150
  therapeutic index (in words): very favourable therapeutic index
[3]
  solubility in distilled water: very soluble in distilled water

## CC(Nc1cccc(C(=O)c2ccc(Cl)cc2)c1)C(=O)O (centres unmarked) [LJ 845]
[1]
  LD50 at 360 h: 1750 mg/kg
[2]; [4]
  inhibition in vivo at 87.5 mg/kg: 75%

## Cc1c(NCC(=O)O)cccc1C(=O)c1ccc(Cl)cc1 [LJ 846, N-[3-(4-Chlorobenzoyl)-2-methyl-phenyl]glycine]
[1]
  LD50 at 360 h: 1600 mg/kg
[2]; Mus musculus
  ED50: 18 mg/kg
[2]; [4]
  inhibition in vivo at 5 mg/kg: 6%
  inhibition in vivo at 10 mg/kg: 40%
  inhibition in vivo at 20 mg/kg: 48%
  inhibition in vivo at 40 mg/kg: 75%
  inhibition in vivo at 80 mg/kg: 90%
[2]
  Therapeutic Index LD 50/ED 50: 89
  therapeutic index (in words): very favourable therapeutic index

## O=C(O)CNc1cccc(C(=O)c2ccccc2)c1 [LJ 850]
[1]
  LD50 at 360 h: 675 mg/kg
[2]; [4]
  inhibition in vivo at 33.75 mg/kg: 28%

## CC(Nc1ccc(C(=O)c2ccccc2)cc1)C(=O)O (centres unmarked) [LJ 854]
[1]
  LD50 at 360 h: 1880 mg/kg
[2]; Mus musculus
  ED50: 32 mg/kg
[2]; [4]
  inhibition in vivo at 5.8 mg/kg: 6%
  inhibition in vivo at 11.75 mg/kg: 11%
  inhibition in vivo at 23.5 mg/kg: 25%
  inhibition in vivo at 47 mg/kg: 84%
  inhibition in vivo at 93.75 mg/kg: 90%
[2]
  Therapeutic Index LD 50/ED 50: 58

## CC(Nc1ccccc1C(=O)c1ccccc1)C(=O)O (centres unmarked) [LJ 855]
[1]
  LD50 at 360 h: 1000 mg/kg
[2]; Mus musculus
  ED50: 16 mg/kg
[2]; [4]
  inhibition in vivo at 3.1 mg/kg: 10%
  inhibition in vivo at 6.25 mg/kg: 14%
  inhibition in vivo at 12.5 mg/kg: 37%
  inhibition in vivo at 25 mg/kg: 73%
  inhibition in vivo at 50 mg/kg: 92%
[2]
  Therapeutic Index LD 50/ED 50: 62

## Cc1c(NC(C)C(=O)O)cccc1C(=O)c1ccc(Cl)cc1 (centres unmarked) [LJ 857]
[1]
  LD50 at 360 h: 1250 mg/kg
[2]; [4]
  inhibition in vivo at 62.5 mg/kg: 64%

## CC(Nc1ccc(C(=O)c2cccs2)cc1)C(=O)O (centres unmarked) [LJ 858]
[1]
  LD50 at 360 h: 1880 mg/kg
[2]; [4]
  inhibition in vivo at 93.75 mg/kg: 78%

## CC(Nc1cccc(C(=O)c2cccs2)c1)C(=O)O (centres unmarked) [LJ 859]
[1]
  LD50 at 360 h: 2500 mg/kg
[2]; [4]
  inhibition in vivo at 125 mg/kg: 77%

## Cc1c(NCC(=O)O)cccc1C(=O)c1ccccc1 [LJ 861]
[1]
  LD50 at 360 h: 1300 mg/kg
[2]; Mus musculus
  ED50: 65 mg/kg
[2]; [4]
  inhibition in vivo at 20 mg/kg: 24%
  inhibition in vivo at 40 mg/kg: 36%
  inhibition in vivo at 80 mg/kg: 52%
  inhibition in vivo at 160 mg/kg: 90%
  inhibition in vivo at 320 mg/kg: 96%
[2]
  Therapeutic Index LD 50/ED 50: 20

## CN(CC(=O)O)c1cccc(C(=O)c2ccccc2)c1 [LJ 862, N-(3-Benzoylphenyl)-N-methyl-glycine]
[2]; Mus musculus
  ED50: 85 mg/kg
[2]; [4]
  inhibition in vivo at 20 mg/kg: 6%
  inhibition in vivo at 40 mg/kg: 24%
  inhibition in vivo at 80 mg/kg: 49%
  inhibition in vivo at 160 mg/kg: 78%
  inhibition in vivo at 320 mg/kg: 89%

## C[C@@H](C(=O)O)N(C(=O)c1ccc(Cl)cc1)c1cccc(C(=O)c2ccccc2)c1 [LJ 863, N-(3-Benzoylphenyl)-N-(4-chlorobenzoyl)-alanine]
[2]; [4]
  inhibition in vivo at 320 mg/kg: 45%

## O=C(c1ccccc1)c1cccc(NC(C(=O)O)c2ccccc2)c1 (centres unmarked) [LJ 864]
[2]; [4]
  inhibition in vivo at 40 mg/kg: 7%
  inhibition in vivo at 80 mg/kg: 22%
  inhibition in vivo at 160 mg/kg: 31%
  inhibition in vivo at 320 mg/kg: 59%

## Cc1ccc(C(=O)c2cccc(NC(C)C(=O)O)c2)cc1 (centres unmarked) [LJ 867]
[1]
  LD50 at 360 h: 2620 mg/kg
[2]; Mus musculus
  ED50: 32 mg/kg
[2]; [4]
  inhibition in vivo at 8.2 mg/kg: 6%
  inhibition in vivo at 16.4 mg/kg: 32%
  inhibition in vivo at 32.75 mg/kg: 52%
  inhibition in vivo at 65.5 mg/kg: 70%
  inhibition in vivo at 131 mg/kg: 92%
  inhibition in vivo at 262 mg/kg: 97%
[2]
  Therapeutic Index LD 50/ED 50: 82
  therapeutic index (in words): very favourable therapeutic index

## CC(Nc1ccc(Cl)c(C(=O)c2ccccc2)c1)C(=O)O (centres unmarked) [LJ 868]
[1]
  LD50 at 360 h: 1800 mg/kg
[2]; Mus musculus
  ED50: > 180 mg/kg
[2]; [4]
  inhibition in vivo at 180 mg/kg: 32%
[2]
  Therapeutic Index LD 50/ED 50: < 10

## Cc1ccc(C(=O)c2ccccc2)cc1NC(C)C(=O)O (centres unmarked) [LJ 869]
[1]
  LD50 at 360 h: 1300 mg/kg
[2]; Mus musculus
  ED50: 28 mg/kg
[2]; [4]
  inhibition in vivo at 8.1 mg/kg: 12%
  inhibition in vivo at 16.25 mg/kg: 36%
  inhibition in vivo at 32.5 mg/kg: 51%
  inhibition in vivo at 65 mg/kg: 82%
  inhibition in vivo at 130 mg/kg: 96%
[2]
  Therapeutic Index LD 50/ED 50: 46

## Cc1ccc(C(=O)c2ccccc2)cc1NCC(=O)O [LJ 871]
[2]; Mus musculus
  ED50: 120 mg/kg
[2]; [4]
  inhibition in vivo at 20 mg/kg: 3%
  inhibition in vivo at 40 mg/kg: 22%
  inhibition in vivo at 80 mg/kg: 34%
  inhibition in vivo at 160 mg/kg: 59%
  inhibition in vivo at 320 mg/kg: 60%

## C[C@H](Nc1cccc(C(=O)c2ccccc2)c1)C(=O)O [LJ 874, N-(3-Benzoylphenyl)-alanine]
[1]
  LD50 at 360 h: 2500 mg/kg
[2]; Mus musculus
  ED50: 35 mg/kg
[2]; [4]
  inhibition in vivo at 7.5 mg/kg: 3%
  inhibition in vivo at 15 mg/kg: 20%
  inhibition in vivo at 30 mg/kg: 48%
  inhibition in vivo at 60 mg/kg: 61%
  inhibition in vivo at 120 mg/kg: 92%
[2]
  Therapeutic Index LD 50/ED 50: 71
  therapeutic index (in words): very favourable therapeutic index
